The numbers were not newly measured in patent US20250049595A1, “ZOTAROLIMUS-ROSUVASTATIN ELUTING BIODEGRADABLE STENT” (priority 2023, published 2025), which cites them from elsewhere.

For the data set the following is noted: targeted by typical daily dose between 5 and 40 mg.

`CC(C)c1nc(N(C)S(C)(=O)=O)nc(-c2ccc(F)cc2)c1/C=C/[C@@H](O)C[C@@H](O)CC(=O)O` [Rosuvastatin]: the plasma concentration was 0.5 ng/mL.
